target: T1, human JAK2 (Homo sapiens, UniProt O60674); test: JAK kinase assay (ELISA or Alphascreen), Jak2; type: biochemical; conditions: standard conditions, read-out: Jak2 inhibition of enzyme activity
T1 construct: The kinase domain of human JAK2 was amplified from U937mRNA; His tag (pFastBac HTc vector; nickel chelate purification) (N); made in house; host or cells: baculovirus; Sf9 for virus, High Five insect cells for production
From the text: The kinase domain of human JAK2 was amplified from U937mRNA using the polymerase chain reaction with the following primers: […]
JAK2 PCR products were cloned into the pFastBac HTc expression vector (Gibco) via the Sal I and Not I sites. The JAK2 plasmid was then transformed into competent DHL10Bac cells (Gibco), and the recombinant baculovirus produced prepared for transfection into Sf9 insect cells.
(§1) Baculovirus preparations from each of the JAK family members were infected into five litres of High Five cells (Invitrogen) grown in High Five serum free medium (Invitrogen) to a cell density of approximately 1-2×10^6 cells/ml. Cells are infected with virus at a MOI of 0.8-3.0. Cells were harvested and lysed. JAK kinase domains were purified by affinity chromatography on a Probond (Invitrogen) nickel chelate affinity column.
(§2) Kinase assays were performed either in a 96 well capture-based ELISA assay or in 384 well Optiplates (Packard) using an Alphascreen Protein Tyrosine Kinase kit. In either case using approximately 15 μg of affinity purified PTK domain in the presence of 50 mM HEPES, pH 7.5, 10 mM MgCl2 150 mM NaCl and 10 μM-1 mM ATP. The biotinylated substrate biotin-EGPWLEEEEEAYGWMDF-NH2 (final concentration 5 μM) was used as substrate. In the ELISA assay tyrosine phosphorylation was quantitated following transfer to an avidin coated ELISA plate using peroxidase-linked anti-phospho-tyrosine antibody PY20. In the Alphascreen assay, Alphascreen phosphotyrosine acceptor beads followed by streptavidin donor beads were added under subdued light. The ELISA plates were read on a BMG Fluorostar, the Alphascreen plates were read on a Packard Fusion Alpha. Inhibitors were added to the assays fifteen minutes prior to the addition of ATP. Inhibitors were added in aqueous DMSO, with DMSO concentrations never exceeding 1%.

T1 sequence (O60674 849-1124 limits assumed): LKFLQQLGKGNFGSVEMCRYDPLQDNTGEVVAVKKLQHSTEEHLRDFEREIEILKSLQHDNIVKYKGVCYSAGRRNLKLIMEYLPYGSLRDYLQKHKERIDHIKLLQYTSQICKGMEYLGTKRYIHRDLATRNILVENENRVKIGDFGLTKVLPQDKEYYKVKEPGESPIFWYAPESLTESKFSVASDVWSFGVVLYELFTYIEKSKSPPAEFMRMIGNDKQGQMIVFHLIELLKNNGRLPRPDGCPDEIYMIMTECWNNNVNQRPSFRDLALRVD

Row | Structure (SMILES) | inhibition at 20 µM [%]
1 | C[C@H](Nc1cncc(-n2cnc3ccc(CN(CCO)CCO)cc32)n1)c1ccc(F)cc1 | ≥ 50
2 | C[C@H](Nc1cncc(-n2cnc3cc(-c4nn[nH]n4)ccc32)n1)c1ccc(F)cc1 | < 50
3 | C[C@H](Nc1cncc(-n2cnc3ccccc32)n1)c1ccc(F)cc1 | ≥ 50
4 | C[C@@H](c1ccccc1)N(C)c1cncc(-n2cnc3cc(C#N)ccc32)n1 | < 50
5 | Cc1ncc(-n2cnc3cc(C#N)ccc32)nc1N[C@@H](C)c1ccccc1 | ≥ 50
6 | N#Cc1ccc2ncn(-c3cncc(Cl)n3)c2c1 | < 50
7 | COc1cccc2c1CCC2Nc1cncc(-n2cnc3ccc(C#N)cc32)n1 (centres unmarked) | < 50
8 | COc1cccc2c1CCC2Nc1cncc(-n2cnc3cc(C#N)ccc32)n1 (centres unmarked) | < 50
9 | COc1ccc2c(c1)CCC2Nc1cncc(-n2cnc3ccc(C#N)cc32)n1 (centres unmarked) | < 50
10 | COc1ccc2c(c1)CCC2Nc1cncc(-n2cnc3cc(C#N)ccc32)n1 (centres unmarked) | < 50
11 | N#Cc1ccc2c(c1)ncn2-c1cncc(NC2CCc3ccc(O)cc32)n1 (centres unmarked) | < 50
12 | N#Cc1ccc2ncn(-c3cncc(NC4CCc5cc(F)ccc54)n3)c2c1 (centres unmarked) | < 50
13 | N#Cc1ccc2ncn(-c3cncc(NC4CCc5cc(Br)ccc54)n3)c2c1 (centres unmarked) | < 50
14 | N#Cc1ccc2c(c1)ncn2-c1cncc(NC2CCc3cc(Br)ccc32)n1 (centres unmarked) | < 50

Other lines, results leading:

Row | inhibition at 20 µM [%] | Structure (SMILES)
15 | ≥ 50 | N#Cc1ccc2ncn(-c3cncc(N[C@H]4CCc5ccccc54)n3)c2c1
16 | ≥ 50 | CC(Nc1cncc(-n2cnc3cc(C#N)ccc32)n1)c1cccnc1 (centres unmarked)
17 | ≥ 50 | CC(Nc1cncc(-n2cnc3ccc(C#N)cc32)n1)c1cccc(F)c1 (centres unmarked)
18 | ≥ 50 | CC(Nc1cncc(-n2cnc3ccc(C#N)cc32)n1)c1cc(F)cc(F)c1 (centres unmarked)
19 | ≥ 50 | CC(Nc1cncc(-n2cnc3cc(C#N)ccc32)n1)c1ccc(F)c(Cl)c1 (centres unmarked)
20 | ≥ 50 | Cc1ccc([C@H](C)Nc2cncc(-n3cnc4ccc(C#N)cc43)n2)cc1
21 | ≥ 50 | C[C@@H](c1ccccc1)N(C)c1cncc(-n2cnc3ccc(C#N)cc32)n1
22 | ≥ 50 | Cc1ncc(-n2cnc3ccc(C#N)cc32)nc1N[C@@H](C)c1ccccc1
23 | < 50 | CC1CC(Nc2cncc(-n3cnc4ccc(C#N)cc43)n2)c2ccccc21 (centres unmarked)
24 | ≥ 50 | CC(Nc1cncc(-n2cnc3ccc(C#N)cc32)n1)c1ccccn1 (centres unmarked)
25 | ≥ 50 | CC(Nc1cncc(-n2cnc3cc(C#N)ccc32)n1)c1ccccn1 (centres unmarked)

target: T2, human JAK3 (Homo sapiens, UniProt P52333); test: JAK kinase assay (ELISA or Alphascreen), Jak3; type: biochemical; conditions: standard conditions, read-out: Jak3 inhibition of enzyme activity
T2 construct: The kinase domain of human JAK3 was amplified from U937mRNA; His tag (pFastBac HTb vector; nickel chelate purification) (N); made in house; host or cells: baculovirus; Sf9 for virus, High Five insect cells for production
From the text: The kinase domain of human JAK3 was amplified from U937mRNA using the polymerase chain reaction with the following primers: […]
JAK3 PCR products were cloned into the pFastBac HTb expression vector (Gibco) via the Xho I and Kpn I sites. The JAK3 plasmid was then transformed into competent DH10Bac cells (Gibco), and the recombinant baculovirus produced prepared for transfection into Sf9 insect cells.
as §1, §2

T2 sequence (P52333 822-1111 limits assumed): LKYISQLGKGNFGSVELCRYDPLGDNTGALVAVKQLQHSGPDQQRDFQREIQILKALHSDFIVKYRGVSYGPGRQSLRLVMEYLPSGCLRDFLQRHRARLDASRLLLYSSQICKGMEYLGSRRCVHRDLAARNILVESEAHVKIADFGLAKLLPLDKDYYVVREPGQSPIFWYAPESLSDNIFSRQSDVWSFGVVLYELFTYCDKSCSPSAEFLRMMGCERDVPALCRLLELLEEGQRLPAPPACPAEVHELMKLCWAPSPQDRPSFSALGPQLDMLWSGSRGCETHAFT

Row | Structure (SMILES) | inhibition at 20 µM [%]
26 | C[C@H](Nc1cncc(-n2cnc3ccc(CN(CCO)CCO)cc32)n1)c1ccc(F)cc1 | < 50
27 | C[C@H](Nc1cncc(-n2cnc3cc(-c4nn[nH]n4)ccc32)n1)c1ccc(F)cc1 | < 50
28 | C[C@H](Nc1cncc(-n2cnc3ccccc32)n1)c1ccc(F)cc1 | ≥ 50
29 | C[C@@H](c1ccccc1)N(C)c1cncc(-n2cnc3cc(C#N)ccc32)n1 | < 50
30 | Cc1ncc(-n2cnc3cc(C#N)ccc32)nc1N[C@@H](C)c1ccccc1 | ≥ 50
31 | N#Cc1ccc2ncn(-c3cncc(Cl)n3)c2c1 | < 50
32 | COc1cccc2c1CCC2Nc1cncc(-n2cnc3ccc(C#N)cc32)n1 (centres unmarked) | ≥ 50
33 | COc1cccc2c1CCC2Nc1cncc(-n2cnc3cc(C#N)ccc32)n1 (centres unmarked) | < 50
34 | COc1ccc2c(c1)CCC2Nc1cncc(-n2cnc3ccc(C#N)cc32)n1 (centres unmarked) | < 50
35 | COc1ccc2c(c1)CCC2Nc1cncc(-n2cnc3cc(C#N)ccc32)n1 (centres unmarked) | < 50
36 | N#Cc1ccc2c(c1)ncn2-c1cncc(NC2CCc3ccc(O)cc32)n1 (centres unmarked) | < 50
37 | N#Cc1ccc2ncn(-c3cncc(NC4CCc5cc(F)ccc54)n3)c2c1 (centres unmarked) | < 50
38 | N#Cc1ccc2ncn(-c3cncc(NC4CCc5cc(Br)ccc54)n3)c2c1 (centres unmarked) | ≥ 50
39 | N#Cc1ccc2c(c1)ncn2-c1cncc(NC2CCc3cc(Br)ccc32)n1 (centres unmarked) | < 50

The next lines start with the values.

Row | inhibition at 20 µM [%] | Structure (SMILES)
40 | ≥ 50 | N#Cc1ccc2ncn(-c3cncc(N[C@H]4CCc5ccccc54)n3)c2c1
41 | ≥ 50 | CC(Nc1cncc(-n2cnc3cc(C#N)ccc32)n1)c1cccnc1 (centres unmarked)
42 | ≥ 50 | CC(Nc1cncc(-n2cnc3ccc(C#N)cc32)n1)c1cccc(F)c1 (centres unmarked)
43 | ≥ 50 | CC(Nc1cncc(-n2cnc3ccc(C#N)cc32)n1)c1cc(F)cc(F)c1 (centres unmarked)
44 | < 50 | CC(Nc1cncc(-n2cnc3cc(C#N)ccc32)n1)c1ccc(F)c(Cl)c1 (centres unmarked)
45 | ≥ 50 | Cc1ccc([C@H](C)Nc2cncc(-n3cnc4ccc(C#N)cc43)n2)cc1
46 | ≥ 50 | C[C@@H](c1ccccc1)N(C)c1cncc(-n2cnc3ccc(C#N)cc32)n1
47 | ≥ 50 | Cc1ncc(-n2cnc3ccc(C#N)cc32)nc1N[C@@H](C)c1ccccc1
48 | < 50 | CC1CC(Nc2cncc(-n3cnc4ccc(C#N)cc43)n2)c2ccccc21 (centres unmarked)
49 | ≥ 50 | CC(Nc1cncc(-n2cnc3ccc(C#N)cc32)n1)c1ccccn1 (centres unmarked)
50 | < 50 | CC(Nc1cncc(-n2cnc3cc(C#N)ccc32)n1)c1ccccn1 (centres unmarked)

target: T3, zap70 (Homo sapiens, UniProt P43403); test: Kinase assay (ELISA or Alphascreen), zap70; type: biochemical; conditions: standard conditions, read-out: zap70 inhibition of enzyme activity
T3 sequence (P43403 338-600 limits assumed): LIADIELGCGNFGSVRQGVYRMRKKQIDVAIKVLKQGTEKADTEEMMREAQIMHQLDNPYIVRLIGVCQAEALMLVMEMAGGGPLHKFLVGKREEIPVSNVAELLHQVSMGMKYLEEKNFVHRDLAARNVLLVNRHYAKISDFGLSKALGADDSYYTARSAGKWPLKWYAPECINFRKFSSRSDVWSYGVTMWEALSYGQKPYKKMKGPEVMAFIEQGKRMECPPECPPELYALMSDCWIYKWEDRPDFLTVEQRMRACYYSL
Experimental: as §2

Row | inhibition at 20 µM [%] | Structure (SMILES)
51 | ≥ 50 | C[C@H](Nc1cncc(-n2cnc3cc(-c4nn[nH]n4)ccc32)n1)c1ccc(F)cc1
52 | ≥ 50 | C[C@H](Nc1cncc(-n2cnc3ccccc32)n1)c1ccc(F)cc1
53 | ≥ 50 | Cc1ccc([C@H](C)Nc2cncc(-n3cnc4ccc(C#N)cc43)n2)cc1

target: tie2 (Homo sapiens, UniProt Q02763); test: Kinase assay (ELISA or Alphascreen), tie2; type: biochemical; conditions: standard conditions, read-out: tie2 inhibition of enzyme activity
Experimental: as §2

Sequence of tie2 (Q02763 824-1096 limits assumed, species assumed): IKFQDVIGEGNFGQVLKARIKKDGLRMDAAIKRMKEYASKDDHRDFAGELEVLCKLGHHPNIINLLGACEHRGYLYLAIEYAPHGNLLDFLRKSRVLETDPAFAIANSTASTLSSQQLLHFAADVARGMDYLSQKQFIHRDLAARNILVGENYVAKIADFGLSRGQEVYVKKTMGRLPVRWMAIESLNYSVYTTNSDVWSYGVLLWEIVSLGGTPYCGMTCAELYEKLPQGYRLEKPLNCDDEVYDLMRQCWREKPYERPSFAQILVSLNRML

Row | inhibition at 20 µM [%] | Structure (SMILES)
54 | ≥ 50 | N#Cc1ccc2ncn(-c3cncc(N[C@H]4CCc5ccccc54)n3)c2c1

target: hck (Homo sapiens, UniProt P08631); test: Kinase assay (ELISA or Alphascreen), hck; type: biochemical; conditions: standard conditions, read-out: hck inhibition of enzyme activity
Experimental: as §2

Sequence of hck (P08631 262-515 limits assumed, species assumed): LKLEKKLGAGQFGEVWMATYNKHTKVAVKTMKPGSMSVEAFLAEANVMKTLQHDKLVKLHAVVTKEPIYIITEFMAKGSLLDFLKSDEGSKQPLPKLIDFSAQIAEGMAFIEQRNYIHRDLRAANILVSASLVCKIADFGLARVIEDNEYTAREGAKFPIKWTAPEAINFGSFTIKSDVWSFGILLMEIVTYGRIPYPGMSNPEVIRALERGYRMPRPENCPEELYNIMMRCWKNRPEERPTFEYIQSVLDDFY

Row | Structure (SMILES) | inhibition at 20 µM [%]
55 | C[C@H](Nc1cncc(-n2cnc3ccc(CN(CCO)CCO)cc32)n1)c1ccc(F)cc1 | ≥ 50
56 | COc1ccc2c(c1)CCC2Nc1cncc(-n2cnc3ccc(C#N)cc32)n1 (centres unmarked) | ≥ 50

More lines, now with the values ahead:

Row | inhibition at 20 µM [%] | Structure (SMILES)
57 | ≥ 50 | CC(Nc1cncc(-n2cnc3cc(C#N)ccc32)n1)c1cccnc1 (centres unmarked)
58 | ≥ 50 | CC(Nc1cncc(-n2cnc3ccc(C#N)cc32)n1)c1cccc(F)c1 (centres unmarked)
59 | ≥ 50 | CC(Nc1cncc(-n2cnc3ccc(C#N)cc32)n1)c1cc(F)cc(F)c1 (centres unmarked)
60 | ≥ 50 | CC(Nc1cncc(-n2cnc3cc(C#N)ccc32)n1)c1ccc(F)c(Cl)c1 (centres unmarked)

target: kdr (Homo sapiens, UniProt P35968); test: Kinase assay (ELISA or Alphascreen), kdr; type: biochemical; conditions: standard conditions, read-out: kdr inhibition of enzyme activity
Experimental: as §2

Sequence of kdr (P35968 834-1162 limits assumed, species assumed): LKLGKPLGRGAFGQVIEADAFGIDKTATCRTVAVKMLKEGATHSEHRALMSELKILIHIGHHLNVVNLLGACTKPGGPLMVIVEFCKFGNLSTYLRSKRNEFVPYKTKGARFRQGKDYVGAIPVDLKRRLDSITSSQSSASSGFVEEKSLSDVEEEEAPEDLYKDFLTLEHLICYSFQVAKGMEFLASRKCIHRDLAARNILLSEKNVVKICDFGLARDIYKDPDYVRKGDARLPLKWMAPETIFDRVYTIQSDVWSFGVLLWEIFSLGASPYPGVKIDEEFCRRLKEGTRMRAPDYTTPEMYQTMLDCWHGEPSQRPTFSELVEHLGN

Row | inhibition at 20 µM [%] | Structure (SMILES)
61 | ≥ 50 | C[C@@H](c1ccccc1)N(C)c1cncc(-n2cnc3ccc(C#N)cc32)n1
62 | ≥ 50 | Cc1ncc(-n2cnc3cc(C#N)ccc32)nc1N[C@@H](C)c1ccccc1

From patent publication US7737143B2, “Substituted pyrazines as kinase inhibitors” (YM Biosciences Australia Pty Ltd, priority 2003, dated 2010)
